Assay results: DBAASP
Values after ≈ are worked out from the molar mass of the structure shown. One block for each molecule: values may come before it.

Assays:
Test in all cases: ≥ marks a high value that may be exact or a test limit, other limits are often not marked, values filed in µg/mL are converted to µM
[1] = system: Bacillus subtilis KCTC 1918
[2] = system: Candida albicans TIMM 1768
[3] = system: Proteus vulgaris KCTC 2433
[4] = system: Saccharomyces cerevisiae KCTC 7296
[5] = system: Salmonella typhimurium KCTC 1926
[6] = system: Staphylococcus aureus KCTC 1621
[7] = system: Trichosporon beigelii KCTC 7707
[8] = system: Acinetobacter baumannii NM35
[9] = system: Acinetobacter baumannii NM8
[10] = system: Candida albicans ATCC 90028
[11] = system: Enterococcus faecalis ATCC 29212
[12] = system: Escherichia coli ATCC 25726
[13] = system: Klebsiella pneumoniae ATCC 700603
[14] = system: Pseudomonas aeruginosa ATCC 27853
[15] = system: Staphylococcus aureus 127/08
[16] = system: Staphylococcus aureus 145/08
[17] = system: Staphylococcus epidermidis RP62A/1
[18] = system: Staphylococcus epidermidis RP62A
[19] = system: Staphylococcus epidermidis T37/8
[20] = system: Staphylococcus epidermidis T6/19
[21] = system: Stenotrophomonas maltophilia B32/1
[22] = system: Stenotrophomonas maltophilia B5/5
[23] = system: Stenotrophomonas maltophilia U8908
[24] = system: Bacillus subtilis IFO 3513
[25] = system: Escherichia coli IFO 12734
Escherichia coli JM109 = system: Escherichia coli JM109
Escherichia coli W160-37 = system: Escherichia coli W160-37
[26] = system: Micrococcus luteus ATCC 9341
[27] = system: Saccharomyces cerevisiae PEP 4/3l
[28] = system: Staphylococcus aureus ATCC 8530
[29] = system: Staphylococcus aureus IFO 12732
[30] = system: Aspergillus flavus KCTC 7375
[31] = system: Bacillus megaterium KCTC 1096
[32] = system: Candida albicans KCTC 7121
[33] = system: Escherichia coli KCTC 1682
[34] = system: Fusarium oxysporum KCTC 6084
Proteus vulgaris = system: Proteus vulgaris
[35] = system: Pseudomonas aeruginosa KCTC 1637
[36] = system: Trichosporon beigelii KCTC 7251
[37] = system: Candida albicans ATCC 37092
[38] = system: Escherichia coli ATCC 25922
Escherichia coli HB101 = system: Escherichia coli HB101
Escherichia coli ML-35 = system: Escherichia coli ML-35
[39] = system: Salmonella enterica subsp. enterica serovar Typhimurium ATCC 14028
[40] = system: Serratia marcescens ATCC 8100
[41] = system: Staphylococcus aureus ATCC 25923
[42] = system: Staphylococcus aureus ATCC 29213

SMILES: CC[C@H](C)[C@H](NC(=O)CNC(=O)[C@H](CC(C)C)NC(=O)[C@H](CCCN=C(N)N)NC(=O)[C@H](CCCCN)NC(=O)[C@H](Cc1ccccc1)NC(=O)[C@@H](NC(=O)[C@H](CCCCN)NC(=O)[C@H](Cc1c[nH]c2ccccc12)NC(=O)[C@H](C)N)C(C)C)C(=O)NCC(=O)N[C@@H](C)C(=O)N[C@H](C(=O)N[C@@H](CC(C)C)C(=O)N[C@@H](Cc1c[nH]c2ccccc12)C(=O)N[C@H](C(=O)N[C@@H](CC(C)C)C(=O)N[C@H](C(=O)N[C@@H](Cc1c[nH]c2ccccc12)C(=O)NCC(=O)O)[C@@H](C)O)C(C)C)C(C)C [AWKVFKRLGIGAVLWVLTWG]
- MIC [1]: 6.25 µM (≈ 14.4 µg/mL)
- MIC [2]: ≥ 50 µM
- MIC [3]: 6.25 µM (≈ 14.4 µg/mL)
- MIC [4]: ≥ 50 µM
- MIC [5]: 0.78 µM (≈ 1.79 µg/mL)
- MIC [6]: 6.25 µM (≈ 14.4 µg/mL)
- MIC [7]: ≥ 50 µM

SMILES: CC[C@H](C)[C@H](NC(=O)[C@H](CCCCN)NC(=O)[C@H](CCCCN)NC(=O)[C@H](Cc1ccccc1)NC(=O)[C@H](CC(C)C)NC(=O)[C@H](CCCCN)NC(=O)[C@H](Cc1c[nH]c2ccccc12)NC(=O)[C@@H](N)CCCCN)C(=O)N1CCC[C@H]1C(=O)N[C@@H](CCCCN)C(=O)N[C@@H](Cc1ccccc1)C(=O)N[C@@H](CC(C)C)C(=O)N[C@@H](Cc1cnc[nH]1)C(=O)N[C@@H](CC(C)C)C(=O)N[C@@H](C)C(N)=O [KWKLFKKIPKFLHLA]
- MIC [30]: ≥ 100 µM
- MIC [31]: 3.12 µM (≈ 5.93 µg/mL)
- MIC [1]: 0.78 µM (≈ 1.48 µg/mL)
- MIC [32]: ≥ 50 µM
- MIC [33]: 8.84 µM (≈ 16.8 µg/mL)
- MIC [34]: ≥ 100 µM
- MIC (Proteus vulgaris): 3.12 µM (≈ 5.93 µg/mL)
- MIC [35]: 6.25 µM (≈ 11.9 µg/mL)
- MIC [6]: 6.25 µM (≈ 11.9 µg/mL)
- MIC [36]: ≥ 50 µM

SMILES: CC[C@H](C)[C@H](NC(=O)[C@H](CCCN=C(N)N)NC(=O)[C@@H](N)CCCN=C(N)N)C(=O)N[C@@H](CCCN=C(N)N)C(=O)N1CCC[C@H]1C(=O)N[C@@H](CCCN=C(N)N)C(=O)N1CCC[C@H]1C(=O)N1CCC[C@H]1C(=O)N[C@@H](CCCN=C(N)N)C(=O)N[C@@H](CC(C)C)C(=O)N1CCC[C@H]1C(=O)N[C@@H](CCCN=C(N)N)C(=O)N1CCC[C@H]1C(=O)N[C@@H](CCCN=C(N)N)C(=O)N1CCC[C@H]1C(=O)O [RRIRPRPPRLPRPRP]
- MIC [37]: 28.8 µM (≈ 55.3 µg/mL)
- MIC [38]: 45.3 µM (≈ 86.9 µg/mL)
- MIC (Escherichia coli HB101): 16 µM (≈ 30.7 µg/mL)
- MIC (Escherichia coli ML-35): ≥ 128 µM
- MIC [39]: 128 µM (≈ 246 µg/mL)
- MIC [40]: ≥ 128 µM
- MIC [41]: > 128 µM
- MIC [42]: > 500 µM

Continued, values first:

- MIC [8]: 10 µM (≈ 28.7 µg/mL)
- MIC [9]: 20 µM (≈ 57.5 µg/mL)
- MIC [10]: ≥ 80 µM
- MIC [11]: 20 µM (≈ 57.5 µg/mL)
- MIC [12]: ≥ 80 µM
- MIC [13]: > 80 µM
- MIC [14]: > 80 µM
- MIC [15]: 5 µM (≈ 14.4 µg/mL)
- MIC [16]: 10 µM (≈ 28.7 µg/mL)
- MIC [17]: 2.5 µM (≈ 7.18 µg/mL)
- MIC [18]: 5 µM (≈ 14.4 µg/mL)
- MIC [19]: 10 µM (≈ 28.7 µg/mL)
- MIC [20]: 5 µM (≈ 14.4 µg/mL)
- MIC [21]: 10 µM (≈ 28.7 µg/mL)
- MIC [22]: ≥ 40 µM
- MIC [23]: 20 µM (≈ 57.5 µg/mL)
SMILES: CC[C@H](C)[C@H](NC(=O)CN)C(=O)N[C@@H](Cc1ccccc1)C(=O)N1CCC[C@H]1C(=O)N[C@H](C(=O)N[C@@H](Cc1ccccc1)C(=O)N[C@@H](C)C(=O)N[C@@H](CCCCN)C(=O)N[C@@H](CC(C)C)C(=O)N[C@@H](CC(C)C)C(=O)NCC(=O)N[C@@H](CCCCN)C(=O)N[C@H](C(=O)N[C@H](C(=O)N[C@@H](CCCCN)C(=O)N[C@H](C(=O)N[C@@H](C)C(=O)N[C@@H](CO)C(=O)N[C@@H](CO)C(=O)N[C@@H](CC(C)C)C(=O)N[C@H](C(=O)N[C@@H](CO)C(=O)N[C@@H](CCCCN)C(=O)NCC(=O)N[C@@H](CCCN=C(N)N)C(=O)N[C@H](C(=O)N[C@@H](CCC(=O)O)C(=O)O)[C@@H](C)O)[C@@H](C)CC)C(C)C)[C@@H](C)CC)C(C)C)[C@@H](C)CC [GIFPIFAKLLGKVIKVASSLISKGRTE]

- MIC [24]: 7.3 µM (≈ 12.5 µg/mL)
- MIC [25]: ≥ 58.4 µM
- MIC (Escherichia coli JM109): 8 µM (≈ 13.7 µg/mL)
- MIC (Escherichia coli W160-37): 16 µM (≈ 27.4 µg/mL)
- MIC [26]: 0.4 µM (≈ 0.684 µg/mL)
- MIC [27]: 13.1 µM (≈ 22.3 µg/mL)
- MIC [28]: 1.65 µM (≈ 2.83 µg/mL)
- MIC [29]: 3.65 µM (≈ 6.25 µg/mL)
SMILES: CC[C@H](C)[C@H](N)C(=O)N[C@@H](CC(C)C)C(=O)N1CCC[C@H]1C(=O)N[C@@H](Cc1ccccc1)C(=O)N[C@@H](CCCCN)C(=O)N[C@@H](Cc1ccccc1)C(=O)N1CCC[C@H]1C(=O)N[C@@H](Cc1ccccc1)C(=O)N[C@@H](Cc1ccccc1)C(=O)N1CCC[C@H]1C(=O)N[C@@H](Cc1ccccc1)C(=O)N[C@@H](CCCN=C(N)N)C(=O)N[C@@H](CCCN=C(N)N)C(N)=O [ILPFKFPFFPFRR]
